US9482923B2, “Colored composition and image display structure” (FUJIFILM CORPORATION, priority 2011, dated 2016)

Legend:
Format in all cases: physicochemical
[1] = Solubility of the dye in n-hexane; conditions: for Solubility (% by mass): in n-hexane at 25° C. and 0.1 MPa; for Solubility (in words): n-hexane
Protocol: 3. Solubility in n-Hexane
The solubility of each of the dyes in n-hexane (solvent) was determined as follows.
Each of the dyes to be measured was dissolved in n-hexane heated at 50° C., thereby preparing a saturated solution. The saturated solution obtained was then left in an environment of 25° C. and 0.1 MPa for 1 hour. The precipitated dye was filtered, and the precipitation amount was measured, from which the solubility (% by mass) of the dye in n-hexane at 25° C. and 0.1 MPa was calculated.

[2] = Absorption maximum wavelength and absorption coefficient of colored composition (visible-light spectrophotometer); parameters: Absorption Coefficient (ε): unit not given here; conditions: n-hexane solution; for Absorption Coefficient (ε): calculated by Lambert-Beer law
Protocol: Each of the dyes shown above as Exemplary Compounds D-2, D-11, D-13, D-14, D-25, D-37, E-2, E-3, and E-7 was dissolved in a solvent (n-hexane) to make a 3% by mass solution, thereby preparing a colored composition (ink). Each of the colored compositions (inks) obtained was evaluated with respect to its color, absorption maximum wavelength (λmax), absorbance (abs), absorption coefficient (∈), viscosity, and relative dielectric constant, and solubility (% by mass) of each of the dyes in a solvent.
2. Absorption Maximum Wavelength, Absorbance, and Absorption Coefficient of Colored Composition
The absorption maximum wavelength (λmax) and the absorbance (abs) of the colored composition were measured using a visible-light spectrophotometer (trade name: UV-1800PC, manufactured by Shimadzu Corporation). The absorption coefficient (∈) was calculated based on the Lambert-Beer law.

[3] = Measurement of relative dielectric constant of the dye (LCR meter, extrapolation); conditions: extrapolated from 5, 7.5 and 10% by mass n-hexane solutions, 20° C., 40% RH, 1 kHz
Protocol: 4. Measurement of Relative Dielectric Constant
Solutions of the dye in n-hexane having concentrations of 5% by mass, 7.5% by mass and 10% by mass, respectively, were prepared, and individually injected into glass cells each having transparent indium-tin-oxide electrodes and a cell gap of 10 μm. The electrical capacities of the resultant cells were measured at 20° C. and 40% RH using a type 2353 LCR meter (manufactured by NF Corporation) at a measurement frequency of 1 kHz. The electrical capacity of n-hexane was also measured as a control sample. The relative dielectric constant of the dye was calculated based on the extrapolation method using the dielectric constants of the above prepared dye solutions calculated from the their electric capacities.

[4] = Measurement of viscosity of dye solutions in n-hexane (R-type viscometer); conditions: 20° C.; for Viscosity (5%): 5% by mass solution in n-hexane

Compound	Solubility (% by mass) [1] [% by mass]	Solubility (in words) [1]	Absorption Maximum Wavelength λmax [2] [nm]	Absorption Coefficient (ε) [2]	Relative Dielectric Constant [3]	Viscosity (5%) [4] [mPa · S]	Viscosity (10%) ([4]; 10% by mass solution in n-hexane) [mPa · S]
COc1ccc(C2=NOC(=O)C2=Cc2ccc(N(CC(=O)O)CC(=O)O)cc2)cc1 [D-102, reference compound]	0.008	low solubility					
CCCCCCCCCCCCN(CCCCCCCCCCCC)c1ccc(C=CC=C2C(=O)ON=C2C(C)(C)C)c(C)c1 [E-2]	6.5		515	5.10 × 10^4	9.5	2.1	
CCCCCCCCCCCCN(CCCCCCCCCCCC)c1ccc(C=CC=CC=C2C(=O)ON=C2C)c(C)c1 [E-7]	5.0		556	5.20 × 10^4		2.3	
CCCCCCCCCCCCN(CCCCCCCCCCCC)c1ccc(C=C2C(=O)ON=C2c2ccccc2)cc1 [D-2]	10.5		468	4.50 × 10^4	8.2	2.1	3.2
CCCCCCCCN(CCCCCCCC)c1ccc(C=CC=C2C(=O)ON=C2C(C)(C)C)c(OC)c1 [E-3]	7.2		530	5.20 × 10^4	9.0	2.1	
CCCCCCCCCCCCn1cc(C=C2C(=O)ON=C2c2ccccc2)c2ccccc21 [D-25]	8.0		426	3.66 × 10^4		2.1	
CCCCCCN(CCCCCC)c1ccc(C=C2C(=O)ON=C2C(C)(C)C)c(C)c1 [D-37]	1.2		465	4.10 × 10^4			
Cc1cc(C=C2C(=O)ON=C2C(C)(C)C)c(C)n1-c1ccc(C(=O)O)cc1 [D-101, reference compound]	0.015	low solubility					
CCCCOC(=O)CN(CC(=O)OCCCC)c1ccc(C=C2C(=O)ON=C2C(C)(C)C)cc1 [D-11]	5.0		459	3.80 × 10^4		2.1	
